From ChEMBL document CHEMBL3632570, “Structure-Guided Design of Novel l-Cysteine Derivatives as Potent KSP Inhibitors” (ACS Med Chem Lett, 2015)
Active and inactive are the calls of the source. No cut-off for these calls is given here.

Experiments:
[1] = molecular target: T1, Kinesin-like protein KIF11 (Homo sapiens, UniProt P52732); test: Inhibition of His-tagged KSP motor domain (1 to 369) (unknown origin) assessed as inhibition of microtubule-stimulated KSP ATPase activity preincuabted for 30 mins followed by ATP addition measured after 15 mins by Kinase-Glo assay
T1 sequence (P52732 whole entry): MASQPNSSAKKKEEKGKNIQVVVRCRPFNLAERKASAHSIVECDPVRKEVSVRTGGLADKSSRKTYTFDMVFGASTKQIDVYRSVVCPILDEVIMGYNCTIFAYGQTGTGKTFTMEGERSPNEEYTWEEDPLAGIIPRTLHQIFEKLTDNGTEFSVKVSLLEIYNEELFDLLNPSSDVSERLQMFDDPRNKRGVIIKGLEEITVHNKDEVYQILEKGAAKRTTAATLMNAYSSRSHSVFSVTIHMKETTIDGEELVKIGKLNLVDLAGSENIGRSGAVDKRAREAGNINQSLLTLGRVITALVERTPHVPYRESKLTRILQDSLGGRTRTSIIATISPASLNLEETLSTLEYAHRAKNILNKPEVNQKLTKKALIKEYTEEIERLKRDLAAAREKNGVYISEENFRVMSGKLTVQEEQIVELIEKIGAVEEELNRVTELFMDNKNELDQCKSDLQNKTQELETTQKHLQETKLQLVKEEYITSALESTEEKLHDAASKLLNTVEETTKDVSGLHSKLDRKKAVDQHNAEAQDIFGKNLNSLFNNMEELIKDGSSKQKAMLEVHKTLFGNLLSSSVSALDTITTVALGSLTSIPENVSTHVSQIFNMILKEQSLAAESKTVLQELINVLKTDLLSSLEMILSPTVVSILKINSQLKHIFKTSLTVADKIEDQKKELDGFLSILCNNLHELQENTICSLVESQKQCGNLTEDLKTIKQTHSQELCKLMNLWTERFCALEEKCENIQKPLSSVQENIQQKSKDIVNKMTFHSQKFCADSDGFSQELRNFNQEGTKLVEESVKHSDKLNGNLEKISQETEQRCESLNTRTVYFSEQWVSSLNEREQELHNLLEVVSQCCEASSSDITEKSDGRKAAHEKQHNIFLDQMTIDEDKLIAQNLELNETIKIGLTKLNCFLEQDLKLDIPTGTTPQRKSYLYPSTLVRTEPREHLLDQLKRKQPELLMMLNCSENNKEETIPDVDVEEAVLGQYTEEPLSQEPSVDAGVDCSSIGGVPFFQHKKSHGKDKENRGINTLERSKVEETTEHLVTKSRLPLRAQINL

HCT-116 [2] = test: Growth inhibition of human HCT116 cells after 72 hrs by MTS assay; assay type: functional, cell-based; settings: HCT-116, 72 h
HCT-116 [3] = test: Antitumor activity against human HCT116 cells xenografted in athymic nude BALB/cAJcL mouse assessed as inhibition of tumor growth at 25 mg/kg, iv administered on days 1,3,5,8,10 and 12 measured on day 15; assay type: functional
Mus musculus [4] = test: Toxicity in athymic nude BALB/cAJcL mouse xenografted with HCT116 cells assessed as mortality at 25 mg/kg, iv administered on days 1,3,5,8,10 and 12; assay type: organism-based, HCT-116; settings: in vivo
[5] = molecular target: T2, Kinesin-like protein KIF11 (Homo sapiens) (UniProt P52732)
T2 sequence (whole entry): T1 sequence (P52732 whole entry)
Description: Binding affinity to KSP motor domain (unknown origin) assessed as change in melting temperature at 100 uM by differential scanning fluorimetry in presence of 1 mM ATP

HeLa [6] = test: Cell cycle arrest at mitotic phase in human HeLa cells assessed as formation of monopolar spindles at 40 nM after 6 hrs by DAPI staining-based microscopic analysis; assay type: functional
HCT-116 [7] = test: Antitumor activity against human HCT116 cells xenografted in iv dosed athymic nude BALB/cAJcL mouse assessed as inhibition of tumor growth drug administered on days 1,3,5,8,10 and 12 measured on day 15; assay type: functional, organism-based
Mus musculus [8] = test: Toxicity in athymic nude BALB/cAJcL mouse xenografted with HCT116 cells assessed as mortality at 10 mg/kg, iv administered on days 1,3,5,8,10 and 12; assay type: organism-based, HCT-116; settings: in vivo
HCT-116 [9] = test: Antitumor activity against human HCT116 cells xenografted in athymic nude BALB/cAJcL mouse assessed as inhibition of tumor growth at 10 mg/kg, iv administered on days 1,3,5,8,10 and 12 measured on day 15; assay type: functional
HeLa [10] = test: Cell cycle arrest at mitotic phase in human HeLa cells assessed as mitotic index after 6 hrs; assay type: functional
HCT-116 [11] = test: Antitumor activity against human HCT116 cells xenografted in athymic nude BALB/cAJcL mouse assessed as inhibition of tumor growth at 150 mg/kg, iv administered on days 1,3,5,8,10 and 12 measured on day 15; assay type: functional
HCT-116 [12] = test: Antitumor activity against human HCT116 cells xenografted in athymic nude BALB/cAJcL mouse assessed as inhibition of tumor growth at 75 mg/kg, iv administered on days 1,3,5,8,10 and 12 measured on day 15; assay type: functional
Mus musculus [13] = test: Toxicity in athymic nude BALB/cAJcL mouse xenografted with HCT116 cells assessed as mortality at 75 mg/kg, iv administered on days 1,3,5,8,10 and 12; assay type: organism-based, HCT-116; settings: in vivo
Mus musculus [14] = test: Toxicity in athymic nude BALB/cAJcL mouse xenografted with HCT116 cells assessed as mortality at 150 mg/kg, iv administered on days 1,3,5,8,10 and 12; assay type: organism-based, HCT-116; settings: in vivo
Mus musculus [15] = test: Toxicity in athymic nude BALB/cAJcL mouse xenografted with HCT116 cells assessed as body weight loss at 25 mg/kg, iv administered on days 1,3,5,8,10 and 12 relative to vehicle-treated control; assay type: organism-based, HCT-116; settings: in vivo

SMILES | IC50 [1] [nM] | IC50 (HCT-116 [2]) [nM] | also measured
N[C@@H](CSC1(c2ccc(-c3ccccc3)cc2)c2ccccc2C=Cc2ccccc21)C(=O)O | 1400 | 395 | 
Cc1ccc(C2(SC[C@H](N)C(=O)O)c3ccccc3CCc3ccccc32)cc1 | 9.3 | 25 | T/C (HCT-116 [3]): 19%; Activity (Mus musculus [4]): Non-toxic
N[C@@H](CSC1(c2ccc(C(F)(F)F)cc2)c2ccccc2CSc2ccccc21)C(=O)O (mixture of isomers) | 61 | 15 | 
N[C@@H](CSC1(c2ccccc2)c2ccccc2CCSc2ccccc21)C(=O)O (mixture of isomers) | > 20000 | > 10000 | 
COc1ccc(C2(SC[C@H](N)C(=O)O)c3ccccc3C=Cc3ccccc32)cc1 | 8.6 | 2.6 | ΔTm [5]: 12.5 °C
N[C@@H](CSC1(c2ccc(C(F)(F)F)cc2)c2ccccc2C=Cc2ccccc21)C(=O)O | 36 | 5 | Activity (HeLa [6]): Active; TGI (HCT-116 [7]): Dose-dependent effect; Activity (Mus musculus [8]): Non-toxic; T/C (HCT-116 [9]): 31%; MI50 (HeLa [10]): 12 nM; T/C (HCT-116 [3]): 12%; Activity (Mus musculus [4]): Non-toxic
N[C@@H](CSC1(c2ccc(Oc3ccccc3)cc2)c2ccccc2CCc2ccccc21)C(=O)O | 306 | 291 | 
N[C@@H](CSC1(c2ccc(C(F)(F)F)cc2)c2ccccc2Oc2ccccc21)C(=O)O | > 20000 | > 10000 | 
N[C@@H](CSC1(c2ccc(C(F)(F)F)cc2)c2ccccc2Sc2ccccc21)C(=O)O | > 20000 | > 10000 | 
CON(C)C(=O)N1N=C(c2cc(F)ccc2F)S[C@@]1(CCCN)c1ccccc1 [FILANESIB] | 18 | 0.7 | 
N[C@@H](CSC(c1ccccc1)(c1ccccc1)c1ccc(C(F)(F)F)cc1)C(=O)O | 262 | 216 | 
N[C@@H](CSC1(c2ccc(-c3ccccc3)cc2)c2ccccc2CCc2ccccc21)C(=O)O | 1060 | 1300 | 
N[C@@H](CSC1(c2ccc(Cl)cc2)c2ccccc2C=Cc2ccccc21)C(=O)O | 12 | 3.9 | 
N[C@@H](CSC1(c2ccc(C(F)(F)F)cc2)c2ccccc2COc2ccccc21)C(=O)O (mixture of isomers) | 75 | 76 | 
N[C@@H](CSC1(c2ccccc2)c2ccccc2CCc2ccccc21)C(=O)O | 209 | 325 | TGI (HCT-116 [7]): Dose-dependent effect; T/C (HCT-116 [11]): 23%; T/C (HCT-116 [3]): 62%; ΔTm [5]: 8 °C; T/C (HCT-116 [12]): 43%; Activity (Mus musculus [13]): Non-toxic; Activity (Mus musculus [4]): Non-toxic; Activity (Mus musculus [14]): Non-toxic; Activity (Mus musculus [15]): Toxic
N[C@@H](CSC1(c2ccc(Cl)cc2)c2ccccc2CCc2ccccc21)C(=O)O | 11 | 41 | T/C (HCT-116 [3]): 11%; Activity (Mus musculus [4]): Non-toxic; Activity (Mus musculus [15]): Toxic
CC(C)(C)c1ccc(C2(SC[C@H](N)C(=O)O)c3ccccc3CCc3ccccc32)cc1 | 301 | 234 | 
N[C@@H](CSC1(c2cccc(C(F)(F)F)c2)c2ccccc2CCc2ccccc21)C(=O)O | 238 | 123 | 
N[C@@H](CSC(c1ccccc1)(c1ccccc1)c1ccccc1)C(=O)O [S-TRITYL-L-CYSTEINE] |  | 910 | 
Cc1ccccc1C1(SC[C@H](N)C(=O)O)c2ccccc2CCc2ccccc21 | 7800 | 4590 | 
Cc1ccc(C2(SC[C@H](N)C(=O)O)c3ccccc3C=Cc3ccccc32)cc1 | 14 | 3.4 | 
COc1ccc(C(SC[C@H](N)C(=O)O)(c2ccccc2)c2ccccc2)cc1 |  | 213 | ΔTm [5]: 9 °C
N[C@@H](CSC1(c2cccc(Cl)c2)c2ccccc2CCc2ccccc21)C(=O)O | 160 | 637 | 
Cc1ccc(C(=O)N(CCCN)[C@@H](c2nc3cc(Cl)ccc3c(=O)n2Cc2ccccc2)C(C)C)cc1 [ISPINESIB] |  | 1.1 | 
